From the supplement of paper PMC13380429

How the values were obtained:
Conditions in all cases: 72 h
HepG2 [1] = test: drug sensitivity score (DSS) for viability; higher = more toxic; extreme values may be limits of the assay
Vero E6 [2] = test: as above
Calu-3 [3] = test: as above
Caco-2 [4] = test: as above
U2OS [5] = test: as above
Vero E6 [6] = test: relative viability EC50 (midpoint between 100% and the lowest measured viability); higher = less toxic
Calu-3 [7] = test: as above
U2OS [8] = test: as above
HepG2 [9] = test: cell viability relative to DMSO; higher = less toxic
Vero E6 [10] = test: as above
Calu-3 [11] = test: as above
Caco-2 [12] = test: as above
U2OS [13] = test: as above
Caco-2 [14] = test: relative viability EC50 (midpoint between 100% and the lowest measured viability); higher = less toxic

Nn1cnc2cc3ccccc3cc2c1=O [centazolone]
drug sensitivity score (HepG2 [1]): 0
drug sensitivity score (Vero E6 [2]): 0
drug sensitivity score (Calu-3 [3]): 0

CCCCCCC[N+](CC)(CC)CCCCc1ccc(Cl)cc1 [clofilium]
drug sensitivity score (HepG2 [1]): 0.6
drug sensitivity score (Vero E6 [2]): 0
drug sensitivity score (Calu-3 [3]): 0
drug sensitivity score (Caco-2 [4]): 1.9
drug sensitivity score (U2OS [5]): 0
relative viability EC50 (Vero E6 [6]): > 10 µM
relative viability EC50 (Calu-3 [7]): > 10 µM
relative viability EC50 (U2OS [8]): > 10 µM
cell viability (HepG2 [9]; 1 nM): 94.1%
cell viability (HepG2 [9]; 10 nM): 124%
cell viability (HepG2 [9]; 100 nM): 135%
cell viability (HepG2 [9]; 1000 nM): 122%
cell viability (HepG2 [9]; 10000 nM): 72.5%
cell viability (Vero E6 [10]; 1 nM): 89%
cell viability (Vero E6 [10]; 10 nM): 102%
cell viability (Vero E6 [10]; 100 nM): 95.2%
cell viability (Vero E6 [10]; 1000 nM): 104%
cell viability (Vero E6 [10]; 10000 nM): 116%
cell viability (Calu-3 [11]; 1 nM): 83.9%
cell viability (Calu-3 [11]; 10 nM): 106%
cell viability (Calu-3 [11]; 100 nM): 91.8%
cell viability (Calu-3 [11]; 1000 nM): 93.6%
cell viability (Calu-3 [11]; 10000 nM): 87.7%
cell viability (Caco-2 [12]; 1 nM): 114%
cell viability (Caco-2 [12]; 10 nM): 106%
cell viability (Caco-2 [12]; 100 nM): 101%
cell viability (Caco-2 [12]; 1000 nM): 108%
cell viability (Caco-2 [12]; 10000 nM): 54.4%
cell viability (U2OS [13]; 1 nM): 95.7%
cell viability (U2OS [13]; 10 nM): 95.6%
cell viability (U2OS [13]; 100 nM): 97.7%
cell viability (U2OS [13]; 1000 nM): 93%
cell viability (U2OS [13]; 10000 nM): 92.2%

COc1cc(C(=O)OCCCN2CCCN(CCCOC(=O)c3cc(OC)c(OC)c(OC)c3)CC2)cc(OC)c1OC [dilazep]
drug sensitivity score (HepG2 [1]): 3.3
drug sensitivity score (Vero E6 [2]): 1.8
drug sensitivity score (Calu-3 [3]): 0
drug sensitivity score (Caco-2 [4]): 1.5
drug sensitivity score (U2OS [5]): 0.2
relative viability EC50 (Vero E6 [6]): > 10 µM
relative viability EC50 (Calu-3 [7]): > 10 µM
relative viability EC50 (U2OS [8]): > 10 µM
cell viability (HepG2 [9]; 1 nM): 104%
cell viability (HepG2 [9]; 10 nM): 89.5%
cell viability (HepG2 [9]; 100 nM): 102%
cell viability (HepG2 [9]; 1000 nM): 82.4%
cell viability (HepG2 [9]; 10000 nM): 70.4%
cell viability (Vero E6 [10]; 1 nM): 98.5%
cell viability (Vero E6 [10]; 10 nM): 97.3%
cell viability (Vero E6 [10]; 100 nM): 100%
cell viability (Vero E6 [10]; 1000 nM): 88.6%
cell viability (Vero E6 [10]; 10000 nM): 79.1%
cell viability (Calu-3 [11]; 1 nM): 112%
cell viability (Calu-3 [11]; 10 nM): 102%
cell viability (Calu-3 [11]; 100 nM): 93.9%
cell viability (Calu-3 [11]; 1000 nM): 103%
cell viability (Calu-3 [11]; 10000 nM): 88.1%
cell viability (Caco-2 [12]; 1 nM): 91.6%
cell viability (Caco-2 [12]; 10 nM): 98.3%
cell viability (Caco-2 [12]; 100 nM): 97.1%
cell viability (Caco-2 [12]; 1000 nM): 97.1%
cell viability (Caco-2 [12]; 10000 nM): 73.6%
cell viability (U2OS [13]; 1 nM): 98.9%
cell viability (U2OS [13]; 10 nM): 101%
cell viability (U2OS [13]; 100 nM): 99.6%
cell viability (U2OS [13]; 1000 nM): 103%
cell viability (U2OS [13]; 10000 nM): 84.6%

COc1ccc2[nH]c([S@@+]([O-])Cc3ncc(C)c(OC)c3C)nc2c1 [esomeprazole]
drug sensitivity score (Vero E6 [2]): 0
drug sensitivity score (Calu-3 [3]): 0
drug sensitivity score (Caco-2 [4]): 0.3
drug sensitivity score (U2OS [5]): 0
relative viability EC50 (Vero E6 [6]): > 10 µM
relative viability EC50 (Calu-3 [7]): > 10 µM
relative viability EC50 (Caco-2 [14]): > 10 µM
relative viability EC50 (U2OS [8]): > 10 µM
cell viability (Vero E6 [10]; 1 nM): 93.8%
cell viability (Vero E6 [10]; 10 nM): 108%
cell viability (Vero E6 [10]; 100 nM): 100%
cell viability (Vero E6 [10]; 1000 nM): 97.8%
cell viability (Vero E6 [10]; 10000 nM): 107%
cell viability (Calu-3 [11]; 1 nM): 98.3%
cell viability (Calu-3 [11]; 10 nM): 108%
cell viability (Calu-3 [11]; 100 nM): 110%
cell viability (Calu-3 [11]; 1000 nM): 96.9%
cell viability (Calu-3 [11]; 10000 nM): 103%
cell viability (Caco-2 [12]; 1 nM): 97.2%
cell viability (Caco-2 [12]; 10 nM): 101%
cell viability (Caco-2 [12]; 100 nM): 101%
cell viability (Caco-2 [12]; 1000 nM): 102%
cell viability (Caco-2 [12]; 10000 nM): 83.1%
cell viability (U2OS [13]; 1 nM): 102%
cell viability (U2OS [13]; 10 nM): 102%
cell viability (U2OS [13]; 100 nM): 95%
cell viability (U2OS [13]; 1000 nM): 102%
cell viability (U2OS [13]; 10000 nM): 95.8%
